# In patent US9045482B2, “Pyrido[4,3-B]indoles and methods of use” (Medivation Technologies, Inc., priority 2009, dated 2015):
# Legend:
# [1] = target: T1, human recombinant adrenergic α2A receptor (Homo sapiens, UniProt P08913); assay: Adrenergic α2A radioligand binding ([3H]MK-912)
# T1 construct: expressed in transfected cells; host or cells: insect Sf9 cells
# T1 sequence (P08913 1-465): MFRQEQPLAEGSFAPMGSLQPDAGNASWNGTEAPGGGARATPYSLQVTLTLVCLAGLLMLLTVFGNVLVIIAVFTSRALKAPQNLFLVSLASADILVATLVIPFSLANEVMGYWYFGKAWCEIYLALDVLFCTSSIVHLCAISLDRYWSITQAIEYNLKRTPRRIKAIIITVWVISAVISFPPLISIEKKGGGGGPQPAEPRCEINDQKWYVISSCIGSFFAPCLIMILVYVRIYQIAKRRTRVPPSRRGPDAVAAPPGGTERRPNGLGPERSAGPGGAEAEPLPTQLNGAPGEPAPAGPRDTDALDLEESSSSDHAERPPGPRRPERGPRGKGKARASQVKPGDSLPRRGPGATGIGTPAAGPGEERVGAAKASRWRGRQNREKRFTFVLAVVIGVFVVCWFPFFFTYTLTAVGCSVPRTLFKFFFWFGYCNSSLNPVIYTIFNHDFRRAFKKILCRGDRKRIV
# Protocol: To evaluate in radioligand binding assays the activity of compounds of the invention, human recombinant adrenergic α2A receptor expressed in insect Sf9 cells [Uhlen, S. et al., J. Pharmacol. Exp. Ther. (1994), 271:1558] in a modified Tris-HCl buffer (50 mM Tris-HCl, pH 7.4, 12.5 mM MgCl2, 2 mM EDTA) was used. Compounds of invention were incubated with 1 nM [^3H]MK-912 for 60 min at 25° C. MK912 was (2S-trans)-1,3,4,5′,6,6′,7,12b-octahydro-1′,3′-dimethyl-spiro[2H-benzofuro[2,3-a]quinolizine-2,4′(1′H)-pyrimidin]-2′(3′H)-one hydrochloride Non-specific binding was estimated in the presence of 10 μM WB-4101 (2-(2,6-dimethoxyphenoxyethyl)aminomethyl-1,4-benzodioxane hydrochloride). Receptor proteins were filtered and washed, the filters were then counted to determine [^3H]MK-912 specifically bound. Compounds were screened at 1 μM or lower, using 1% DMSO as vehicle. Compounds of the invention were tested in this biochemical assay. Biochemical assay results for representative compounds were presented as the percent inhibition of specific binding in Table 3.
# [2] = target: T2, human recombinant adrenergic α1D receptor (Homo sapiens, UniProt P25100); assay: Adrenergic α1D radioligand binding ([3H]Prozosin)
# T2 construct: expressed in transfected cells; host or cells: human embryonic kidney (HEK-293) cells
# T2 sequence (P25100 1-572): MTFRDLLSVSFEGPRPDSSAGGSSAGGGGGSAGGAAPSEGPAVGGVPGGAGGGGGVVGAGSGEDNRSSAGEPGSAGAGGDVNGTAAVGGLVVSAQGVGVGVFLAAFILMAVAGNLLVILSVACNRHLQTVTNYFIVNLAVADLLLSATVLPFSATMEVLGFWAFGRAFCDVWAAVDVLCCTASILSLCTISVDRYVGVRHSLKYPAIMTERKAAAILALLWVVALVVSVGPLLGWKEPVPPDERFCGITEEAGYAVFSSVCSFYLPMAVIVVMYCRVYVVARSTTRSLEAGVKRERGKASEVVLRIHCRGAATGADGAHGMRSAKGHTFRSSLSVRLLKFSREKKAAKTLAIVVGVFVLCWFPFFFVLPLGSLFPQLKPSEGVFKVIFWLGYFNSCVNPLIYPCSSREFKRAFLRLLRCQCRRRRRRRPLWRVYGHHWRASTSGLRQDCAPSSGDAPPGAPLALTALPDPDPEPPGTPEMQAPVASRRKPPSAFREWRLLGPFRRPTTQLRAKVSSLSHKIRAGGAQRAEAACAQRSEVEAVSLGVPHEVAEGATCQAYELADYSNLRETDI
# Protocol: Compounds of invention were incubated with 0.6 nM [^3H]Prozosin for 60 min at 25° C. Non-specific binding was estimated in the presence of 10 μM phentolamine. Receptor proteins were filtered and washed, the filters were then counted to determine [^3H]Prozosin specifically bound. Compounds were screened at 1 μM or lower, using 1% DMSO as vehicle. Compounds of the invention were tested in this biochemical assay. Biochemical assay results for representative compounds were presented as the percent inhibition of specific binding in Table 3.
# [3] = target: T3, rat adrenergic α1B receptor (Rattus norvegicus, UniProt P15823); assay: Adrenergic α1B radioligand binding ([3H]Prozosin); set-up: species or system Wistar Rat; conditions: 0.1 μM ligand conc.
# T3 construct: rat adrenergic α1B receptor obtained from Wistar Rat liver; from tissue; host or cells: Wistar Rat liver
# T3 sequence (P15823 1-515): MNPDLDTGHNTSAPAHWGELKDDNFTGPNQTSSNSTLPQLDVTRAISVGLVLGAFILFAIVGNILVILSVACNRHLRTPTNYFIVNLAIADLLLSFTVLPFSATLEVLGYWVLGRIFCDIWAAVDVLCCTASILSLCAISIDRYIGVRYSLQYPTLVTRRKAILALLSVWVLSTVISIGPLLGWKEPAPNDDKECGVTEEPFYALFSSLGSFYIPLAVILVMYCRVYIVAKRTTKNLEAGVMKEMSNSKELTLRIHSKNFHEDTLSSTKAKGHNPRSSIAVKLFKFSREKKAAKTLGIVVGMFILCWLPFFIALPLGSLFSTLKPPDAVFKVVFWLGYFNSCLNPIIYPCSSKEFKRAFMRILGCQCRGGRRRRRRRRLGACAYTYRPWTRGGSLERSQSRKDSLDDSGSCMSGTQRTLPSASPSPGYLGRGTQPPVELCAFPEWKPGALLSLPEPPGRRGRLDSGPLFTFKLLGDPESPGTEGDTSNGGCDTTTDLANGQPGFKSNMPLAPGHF
# Protocol: To evaluate in radioligand binding assays the activity of compounds of the invention, rat adrenergic α1B receptor obtained from Wistar Rat liver [Garcia-S'ainz, J. A. et al., Biochem. Biophys. Res. Commun. (1992), 186:760; Michel, A. D. et al., Br. J. Pharmacol. (1989), 98:883] in a modified Tris-HCl buffer (50 mM Tris-HCl buffer, pH 7.4, 0.5 mM EDTA) was used. Compounds of the invention were incubated with 0.25 nM [^3H]Prozosin for 60 min at 25° C. Non-specific binding was estimated in the presence of 10 μM phentolamine. Receptor proteins were filtered and washed, the filters were then counted to determine [^3H]Prozosin specifically bound. Compounds were screened at 1 μM or lower, using 1% DMSO as vehicle. Compounds of the invention were tested in this biochemical assay. Biochemical assay results for representative compounds were presented as the percent inhibition of specific binding in Table 3.
SMILES,Percent Inhibition of ligand binding Adrenergic α2A ([1]; 1 μM ligand conc.) [%],Percent Inhibition of ligand binding Adrenergic α1D ([2]; 1 μM ligand conc.) [%],Percent Inhibition of ligand binding Adrenergic α2A ([1]; 0.1 μM ligand conc.) [%],Percent Inhibition of ligand binding Adrenergic α1B [3] [%],Percent Inhibition of ligand binding Adrenergic α1D ([2]; 0.1 μM ligand conc.) [%]
"Fc1ccc(CCn2c3c(c4cc(Cl)ccc42)C2CCCN2CC3)cc1 (stereo not shown) [Compound 1, 7-(4-fluorophenethyl)-10-chloro-2,3,5,6,7,11c-hexahydro-1H-indolizino[7,8-b]indole]",22,15,–,–,–
"Fc1ccc(CCn2c3c(c4cc(Cl)ccc42)CN2CCCC2C3)cc1 (stereo not shown) [Compound 2, 10-(4-fluorophenethyl)-7-chloro-2,3,5,10,11,11a-hexahydro-1H-indolizino[7,6-b]indole]",20,23,–,–,–
"O=C(Cn1c2c(c3cccnc31)CN1CCCC1C2)N1CCCCC1 (stereo not shown) [Compound 37, 1-(piperidin-1-yl)-2-(8,9,9a,10-tetrahydro-5H-pyrido[3′,2′:4,5]pyrrolo[3,2-f]indolizin-11(7H)-yl)ethanone]",–,–,12,9,6
"O=C(Cn1c2c(c3cccnc31)C1CCCN1CC2)N1CCCCC1 (stereo not shown) [Compound 38, 1-(piperidin-1-yl)-2-(2,3,5,6-tetrahydro-1H-pyrido[3′,2′:4,5]pyrrolo[2,3-g]indolizin-7(11cH)-yl)ethanone]",–,–,4,8,4
